“Also recorded” adds a separate entry of the source.
Experiments:
[1] = tested on: B. subtilis MF920; assay: Survival rate (viable cell count) after addition of amino acids and heat treatment; type: cell-based, Bacillus subtilis; settings: heated at 80° C. for 10 minutes; for viable cell count compared with sterilized purified water alone: amino acid 1% (w/v), FIG. 5
Procedure: In the same manner as the above-mentioned (1)-(i), additives of glycine, L-alanine, L-serine, L-lysine monohydrochloride, L-threonine and L-arginine monohydrochloride were dissolved in sterilized purified water, respectively to prepare amino acid solutions of 10% (w/v). Then a bacteria solution (B. subtilis MF920) was added to 1 ml of each of the amino acid solutions so that amino acid concentration in each tube would be 1% (w/v).
The test tubes were heated at 80° C. for 10 minutes and then quenched. Then, 10 fold dilutions of the obtained bacteria solutions were prepared.
0.1 ml of each dilution was inoculated on three dishes and incubated 2 days to count expressed colonies. The survival rate was measured in the same manner as described above.
Change in the bacteria survival rate was examined in the same manner as the above-mentioned (2) except that the concentration of L-serine was varied within 0.01 to 1% (w/v).

[2] = tested on: Escherichia coli; settings: in the presence of ethanol; cited from earlier work
[3] = tested on: B. subtilis; assay: Growth curve by turbidity at 660 nm; type: cell-based, Bacillus subtilis; settings: for proliferation of B. subtilis compared with the control: serine 0.5% (w/v), 37° C., 10 hours, turbidity 660 nm, FIG. 3
Procedure: (§1) (iii) L-serine or D-serine as the amino acid was dissolved in sterilized purified water and added with bacteria solutions (B. subtilis and S. typhimurium) of the same amount and then introduced in test tubes. 1 ml of each solution was inoculated on a 9 ml DM medium (partially modified) so that final serine concentration would be 0.5% (w/v). Turbidity of the medium added with the bacteria solution and serine was measured on 660 nm at 37° C. for 10 hours immediately after the inoculation and then growth curves of B. subtilis and S. typhimurium were formed.
(§2) As a control, turbidity was measured on a medium merely added with sterilized purified water instead of serine.
(§3) (ii) Turbidity was measured on 660 nm for 8 hours immediately after the inoculation and growth curves of S. typhimurium and B. subtilis were formed in substantially the same manner as the above-described (1)-(iii), except that only L-serine or D-serine of 0.5% (w/v), or L-serine or D serine of 0.5% (w/v) in combination with protamine of 0.03% (w/v), each at the final concentration, were added and solutions of S. typhimurium and B. subtilis were used.
Growth curves of B. subtilis were formed in the same manner as the above-described (4) except that protamine of 0.03% (w/v) was replaced with lysozyme of 0.1% (w/v).
(§4) With compounds shown in FIGS. 14, 16 and 18, growth curves of S. typhimurium, B. subtilis and E. coli were formed in substantially the same manner as the above-described (1)-(111), respectively. The results are shown in FIGS. 14, 16 and 18, respectively. For comparison, the compounds were solely used without L-serine and the growth curves of S. typhimurium, B. subtilis and E. coli were formed. The results are shown in FIGS. 15, 17 and 19, respectively.

[4] = tested on: S. typhimurium; assay: Growth curve by turbidity at 660 nm; type: cell-based, Salmonella typhimurium
Procedure: as §1, §2, §3, §4

[5] = tested on: E. coli; assay: Survival rate of E. coli after addition of L- or D-serine, with or without heat treatment; type: cell-based, Escherichia coli; settings: serine 0.5% (w/v), FIG. 2
Procedure: (i) Glycine, L-alanine, L-serine, L-lysine monohydrochloride, L threonine or L-arginine monohydrochloride was put in test tubes as an additive, respectively, and dissolved in sterilized purified water to prepare amino acid solutions of 10% (w/v). To 1 ml of each of the amino acid solutions 9 ml of the bacteria solution was added so that the concentration of each amino acid would be 1% (w/v).
The test tubes containing these amino acids and the bacteria solution were allowed to stand at room temperature for 10 minutes and 10^4 fold dilutions were obtained from the resulting solutions.
0.1 ml of each dilution was inoculated on three dishes and incubated for 2 days to count the number of expressed colonies as the viable cell count.
In the same manner as described above, a 10^4 fold dilution prepared without adding amino acid was used as a blank and incubated to count expressed colonies as the viable cell count.
As a survival rate, the viable cell count of bacteria added with amino acid with respect to the viable cell count measured in the blank was measured.
(ii) The survival rate of E. coli was measured in the same manner as described above except that L-serine and D-serine of 0.5% (w/v) as the amino acids and an E. coli solution as the bacteria solution were used.

[6] = tested on: E. coli; assay: E. coli survival rate after heat treatment in the presence of casein; type: cell-based, Escherichia coli; settings: L-serine 1% (w/v), casein 1 to 4% (w/v), heated at 40° C. for 10 minutes; FIG. 11
Procedure: L-serine of 0% or 1% (w/v), casein of 1 to 4% (w/v) and a 802 growth medium were added in test tubes. The test tubes were heated at 40° C. for 10 minutes and quenched. 10-fold dilutions of the resulting solutions were prepared. 0.1 ml of each of the dilutions was inoculated on three dishes, incubated for one day and expressed colonies were counted to examine change in the E. coli survival rate.

[7] = tested on: E. coli; assay: Growth curve by turbidity at 660 nm; type: cell-based, Escherichia coli; settings: L-serine 1.5% (w/v) solely, 8 hours; FIG. 7
Procedure: as §1, §2
(i) Turbidity of the medium was measured on 660 nm for 8 hours immediately after the inoculation and the growth curve of E. coli was formed in the same manner as the above-described (1)-(iii) except that L-serine of 1.5% (w/v), or L-serine or D-serine of 1.5% (w/v) and protamine of 0.1% (w/v), each at the final concentration, were added and an E. coli solution was used.
With compounds shown in FIGS. 14, 16 and 18, growth curves of S. typhimurium, B. subtilis and E. coli were formed in substantially the same manner as the above-described (1)-(111), respectively. The results are shown in FIGS. 14, 16 and 18, respectively. […]

[8] = Amino acid analysis of L-serine after a heat treatment; type: physicochemical; settings: for L-serine concentration: nominal 2 nmol/10 μl
Procedure: L-serine was added in 1% (w/v) to the bacteria solution and to the medium used in the above. The obtained bacteria culture solution and medium were divided in two test tubes, respectively. One of them was allowed to stand at room temperature for 10 minutes and the other was heated at 80° C. for 10 minutes. Both were quenched and diluted so that the L-serine concentration would be 2 nmol/10 μl and amino acid analysis was carried out with an amino acid automatic analyzer.

[9] = serine 0.5% (w/v) only, 8 hours, FIG. 8
[10] = serine 0.5% (w/v), 37° C., 10 hours, turbidity 660 nm, FIG. 4

Cl.N=C(N)NCCC[C@H](N)C(=O)O [L-arginine, L-arginine monohydrochloride]
viable cell count compared with sterilized purified water alone [1]: increase

NCC(=O)O [glycine]
viable cell count compared with sterilized purified water alone [1]: slightly reduced
bacteriostasis to Escherichia coli [2]: shows bacteriostasis

C[C@H](N)C(=O)O [L-alanine]
viable cell count compared with sterilized purified water alone [1]: slightly reduced

N[C@H](CO)C(=O)O [D-serine]
proliferation of B. subtilis relative to the control ([3]; serine 0.5% (w/v) only, 8 hours, FIGS. 9 and 10): about 50%
proliferation of B. subtilis compared with the control [3]: 80%
proliferation of S. typhimurium relative to the control [4, 9]: about 80%
proliferation of S. typhimurium relative to the control [4, 10]: about 80%

Cl.NCCCC[C@H](N)C(=O)O [L-lysine, L-lysine monohydrochloride]
viable cell count compared with sterilized purified water alone [1]: increase

N[C@@H](CO)C(=O)O [L-serine]
survival rate as a function of L-serine concentration ([1]; L-serine 0.01 to 1% (w/v), FIG. 6): the higher the L-serine concentration was, the more the survival rate decreased
viable cell count compared with sterilized purified water alone [1]: remarkably reduced; also recorded: greatest reduction
bacteria proliferation after heat treatment ([5]; heat treatment at 80° C. for 10 minutes): further inhibited
bacteria proliferation relative to the blank ([5]; no heat treatment): about 30%
E. coli proliferation in the presence of casein [6]: effective inhibition
proliferation of E. coli relative to the control [7]: about 40%
decomposition by heating ([8]; 80° C. for 10 minutes, regardless of the presence of bacteria): would not be decomposed
L-serine concentration ([8]; bacteria solution heated (80° C., 10 minutes)): 2.3 nmol/10 μl
L-serine concentration ([8]; bacteria solution unheated (room temperature 10 minutes)): 2.3 nmol/10 μl
L-serine concentration ([8]; medium heated (80° C., 10 minutes)): 2.3 nmol/10 μl
L-serine concentration ([8]; medium unheated (room temperature 10 minutes)): 2.2 nmol/10 μl
proliferation of B. subtilis compared with the control [3]: about 10%
proliferation of S. typhimurium relative to the control [4, 9]: about 80%
proliferation of S. typhimurium relative to the control [4, 10]: about 80%

C[C@@H](O)[C@H](N)C(=O)O [L-threonine]
viable cell count compared with sterilized purified water alone [1]: increase

From patent US6602532B2, “Process of preserving food and food preservative” (F.G.A. Laboratories Flavourence Corporation, priority 2000, dated 2003)
